Where two headings read alike, the source gives them in different places.
Columns and labels:
[1] = target: T1, human kappa opioid receptor (Homo sapiens, UniProt P41145); assay: biochemical; format: binding
T1 construct: expressed in transfected cells; host or cells: CHO cells
Protocol: (§1) Radioligand displacement was measured using scintillation proximity assays (SPA).
(§2) Briefly, serial dilutions of the test compounds were placed in a 96-well plate to which were added SPA beads, membrane and radioligand. The assay conditions for each opioid receptor subtype are described in Table 10 below. The plates were incubated for 8 hours-overnight at room temperature, spun at 1000 rpm to pellet the SPA beads, and radioactivity was measured using the TopCount® microplate Scintillation counter. Specific binding at each concentration of test compound was calculated by subtracting the non-specific binding measured in the presence of excess cold ligand. IC50 values were obtained by non-linear regression of specific binding versus concentration curves and Ki values were calculated using Kd values that were experimentally pre-determined for each lot of membrane preparations.

human mu opioid receptor [2] = target: T2, human mu opioid receptor (Homo sapiens, UniProt P35372); assay: biochemical; format: binding; details: CHO-K1 membranes, [3H]DAMGO 6 nM; read-out: Ki, Mu opioid receptor
T2 construct: expressed in transfected cells; host or cells: CHO cells
T2 sequence (P35372 whole entry): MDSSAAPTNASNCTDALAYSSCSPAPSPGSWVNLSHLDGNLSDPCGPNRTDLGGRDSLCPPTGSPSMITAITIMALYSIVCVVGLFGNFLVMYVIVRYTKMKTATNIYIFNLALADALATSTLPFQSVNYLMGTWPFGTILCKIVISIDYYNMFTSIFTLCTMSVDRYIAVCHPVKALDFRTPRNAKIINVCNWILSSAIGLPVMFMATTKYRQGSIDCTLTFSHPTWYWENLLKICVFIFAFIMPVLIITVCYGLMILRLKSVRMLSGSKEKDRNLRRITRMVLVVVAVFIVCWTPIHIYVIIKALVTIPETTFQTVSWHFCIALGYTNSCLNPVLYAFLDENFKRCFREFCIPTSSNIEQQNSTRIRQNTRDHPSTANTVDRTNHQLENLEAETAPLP
Protocol: as §1, §2

[3] = Pharmacokinetics following intravenous (IV) dosing; format: in vivo, Sprague-Dawley rats; details: male, Sprague-Dawley, rat, plasma; for Cmax: read-out: Cmax; for Vd: read-out: Vss
From the text: (§3) There were 3 rats/group. All animals were food fasted overnight. […] The predose sample was collected from the JVC.
(§4) Following the last collection point, the animals were euthanized.

[4] = target: T1, human kappa opioid receptor; assay: cell-based; details: for Emax: maximal response at the highest tested concentration, read-out: % max effect, kappa opioid receptor
Protocol: (§5) Studies were conducted in CHO cells heterologously expressing the cloned human mu, kappa or delta opioid receptors. cAMP was measured using a cAMP HiRange homogenous time-resolved fluorescence assay (HTRF Assay), that is based on a competitive immunoassay principle (Cisbio, Cat.#62AM6PEC).
(§6) Briefly, suspensions of cells expressing either the mu, kappa or delta opioid receptors were prepared in buffer containing 0.5 mM isobutyl-methyl xanthine (IBMX). […] EC50 values were calculated for each compound from a sigmoidal dose-response plot of concentrations versus maximum response. To determine if the compounds behaved as full or partial agonists in the system, the maximal response at the highest tested concentrations of compounds were compared to that produced by a known full agonist.

human mu opioid receptor [5] = target: T2, human mu opioid receptor; assay: cell-based; details: for Emax: maximal response at the highest tested concentration, read-out: % max effect, mu opioid receptor; for EC50: read-out: EC50, mu opioid receptor
Protocol: as §5, §6

[6] = Pharmacokinetics following oral (PO) dosing; format: in vivo, Sprague-Dawley rats; details: male, Sprague-Dawley, rat, plasma; for Cmax: read-out: Cmax; for Tmax: read-out: Tmax (converted)
From the text: as §3, §4

Male CD-1 mice = assay: Assessment of CNS side effects in mice (Straub tail, muscle rigidity, pinna reflex)
From the text: The objective of this study was to provide an approximation of the side effect profile of various oligomeric conjugates for comparison to the parent compounds by measuring various gross behavioral and physiological signs following administration of compound.
Additional evaluations included muscle rigidity and pinna reflex.
Male CD-1 mice from Charles River Laboratories, Raleigh, N.C., weighing from 16-18 grams were maintained on a regular light/dark cycle (lights on 0600-1800) with ad libitum food and water for 1 week before commencement of testing. N=2 per treatment condition, i.e., separate mice for each dose of each test article, injection was performed via a 25-gauge ⅝-inch needle on a 1-mL tuberculin syringe for the s.c. route and a 22-gauge stainless steel mouse feeding tube for the p.o. route (Becton, Dickinson & Co., Franklin Lakes, N.J.). Each treatment condition was divided about evenly between two observers. […] Test article was administered (s.c. or p.o., and the mouse was placed immediately in the observation chamber). One-half, 1, 2, and 3 hours later, the animal was observed undisturbed for gross signs such as locomotor ataxia, tremor, hyperactivity, hypoactivity, convulsions, hindlimb splay, and Straub tail, and then removed and assessed for muscle tone (normal, rigid, flaccid), pinna reflex (presence or absence), righting reflex (intact or lost), and placing (whether or not the forepaws are extended when the mouse is placed near a surface).
Each of the tables show the number of animals responding at each dose, where N=2. […] A bolded value indicates the lowest dose at which a response was detected.

squirrel monkeys = assay: Monkey self-administration model of addictive potential; details: 0.03 mg/kg/injection
From the text: Dose-related effects of the test articles were examined, using two or more doses of each drug in 3-4 subjects in a double alternation schedule in which each unit dose (or vehicle) was used in two consecutive sessions before a change in unit dose.
Addictive potential of opioid compounds and opioid conjugates of the invention may be assessed through the use of squirrel monkey models as known in the art.
Under the double alternation schedule, each unit dose (or vehicle) was available for intravenous self-administration for two consecutive sessions before the unit dose was changed. In this way, it was possible to establish the function relating unit dose of intravenous drug to (i) number of injections per session, and/or (ii) the percentage of total responses that occur on the lever leading to self-administration (injection-lever responding, % ILR). Unit doses of drugs ranged from 0.01 to 3.2 mg/kg/injection.

[7] = hydroxycodone series, 1 mg/kg IV, Mean ± SD
[8] = hydroxycodone series, 5.0 mg/kg oral, Mean ± SD

T1 sequence (P41145 whole entry): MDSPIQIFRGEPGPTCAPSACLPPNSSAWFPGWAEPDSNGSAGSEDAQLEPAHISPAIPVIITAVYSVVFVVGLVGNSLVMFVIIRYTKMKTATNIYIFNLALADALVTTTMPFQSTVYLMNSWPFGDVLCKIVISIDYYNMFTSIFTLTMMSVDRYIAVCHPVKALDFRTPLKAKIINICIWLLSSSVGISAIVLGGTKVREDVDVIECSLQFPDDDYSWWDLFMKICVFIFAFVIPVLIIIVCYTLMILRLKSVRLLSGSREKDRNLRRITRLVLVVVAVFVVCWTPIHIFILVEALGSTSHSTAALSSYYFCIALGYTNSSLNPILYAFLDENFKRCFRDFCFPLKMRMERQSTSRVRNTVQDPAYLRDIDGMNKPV

`COCCOC1C=CC2C3Cc4ccc(OC)c5c4C2(CCN3C)C1O5` (stereo not drawn) [α-6-mPEG1-O-codeine] gave a Ki [1] of 54.7 µM, a Ki (human mu opioid receptor [2]) of 1.82 µM and an AUC ([3]; iv, 1 mg/kg) of 258 ng·h/mL. The AUC(0-inf) ([3]; iv, 1 mg/kg) was 262 ng·h/mL, the MRT last ([3]; iv, 1 mg/kg) was 32.2 min and the clearance ([3]; iv, 1 mg/kg) was 64.6 ± 8.75 mL/min/kg. The Cmax ([3]; iv, 1 mg/kg) was 723 ± 31.2 ng/mL, the half-life ([3]; iv, 1 mg/kg, read-out: T1/2(2)) was 42.1 ± 4.84 min and the Vd ([3]; iv, 1 mg/kg) was 2.22 ± 0.899 L/kg. It also gave an Emax [4] of 51%, an Emax (human mu opioid receptor [5]) of 80% and an EC50 (human mu opioid receptor [5]) of 8.57 µM.
For `COCCOCCOC1C=CC2C3Cc4ccc(OC)c5c4C2(CCN3C)C1O5` (stereo not drawn) [α-6-mPEG2-O-codeine], the Ki [1] was 22.6 µM, the Ki (human mu opioid receptor [2]) was 1.38 µM and the AUC ([3]; iv, 1 mg/kg) was 242 ng·h/mL. The AUC(0-inf) ([3]; iv, 1 mg/kg) was 243 ng·h/mL, the MRT last ([3]; iv, 1 mg/kg) was 31.5 min and the clearance ([3]; iv, 1 mg/kg) was 69 ± 7.57 mL/min/kg. It also gave a Cmax ([3]; iv, 1 mg/kg) of 685 ± 41 ng/mL, a half-life ([3]; iv, 1 mg/kg, read-out: T1/2(2)) of 35.3 ± 2.78 min and a Vd ([3]; iv, 1 mg/kg) of 2.25 ± 0.166 L/kg. The EC50 [4] was 40.1 µM, the Emax [4] was 59% and the Emax (human mu opioid receptor [5]) was 75%. For the same compound, the EC50 (human mu opioid receptor [5]) was 5.14 µM, the AUC ([6]; po, 5 mg/kg) was 5.85 ng·h/mL and the AUC(0-inf) ([6]; po, 5 mg/kg) was 6.98 ng·h/mL. For the same compound, the MRT last ([6]; po, 5 mg/kg) was 62 min, the bioavailability ([6]; po, 5 mg/kg) was 0.57% and the Cmax ([6]; po, 5 mg/kg) was 3.47 ± 0.606 ng/mL. For the same compound, the half-life ([6]; po, 5 mg/kg, read-out: T1/2(2)) was 97.6 ± 28.4 min and the Tmax ([6]; po, 5 mg/kg) was 15 min.
Compound `COCCOCCOCCOCCOC1C=CC2C3Cc4ccc(OC)c5c4C2(CCN3C)C1O5` (stereo not drawn) [α-6-mPEG4-O-codeine] has a Ki [1] of 97 µM, a Ki (human mu opioid receptor [2]) of 2.89 µM and an AUC ([3]; iv, 1 mg/kg) of 253 ng·h/mL. The AUC(0-inf) ([3]; iv, 1 mg/kg) was 257 ng·h/mL, the MRT last ([3]; iv, 1 mg/kg) was 27.5 min and the clearance ([3]; iv, 1 mg/kg) was 65.9 ± 10.4 mL/min/kg. It also gave a Cmax ([3]; iv, 1 mg/kg) of 746 ± 70 ng/mL, a half-life ([3]; iv, 1 mg/kg, read-out: T1/2(2)) of 57.1 ± 43.8 min and a Vd ([3]; iv, 1 mg/kg) of 2.3 ± 0.72 L/kg. The Emax (human mu opioid receptor [5]) was 99%, the EC50 (human mu opioid receptor [5]) was 22.1 µM and the AUC ([6]; po, 5 mg/kg) was 42.2 ng·h/mL. For the same compound, the AUC(0-inf) ([6]; po, 5 mg/kg) was 44.5 ng·h/mL, the MRT last ([6]; po, 5 mg/kg) was 83.8 min and the bioavailability ([6]; po, 5 mg/kg) was 3.47%. For the same compound, the Cmax ([6]; po, 5 mg/kg) was 31.1 ± 13.1 ng/mL, the half-life ([6]; po, 5 mg/kg, read-out: T1/2(2)) was 118 ± 60 min and the Tmax ([6]; po, 5 mg/kg) was 15 min.
Compound `COCCOCCOCCOCCOCCOC1C=CC2C3Cc4ccc(OC)c5c4C2(CCN3C)C1O5` (stereo not drawn) [α-6-mPEG5-O-codeine] has a Ki [1] of 59.1 µM, a Ki (human mu opioid receptor [2]) of 2.43 µM and an AUC ([3]; iv, 1 mg/kg) of 192 ng·h/mL. For the same compound, the AUC(0-inf) ([3]; iv, 1 mg/kg) was 195 ng·h/mL, the MRT last ([3]; iv, 1 mg/kg) was 31.8 min and the clearance ([3]; iv, 1 mg/kg) was 86.2 ± 7.04 mL/min/kg. The Cmax ([3]; iv, 1 mg/kg) was 533 ± 38.9 ng/mL, the half-life ([3]; iv, 1 mg/kg, read-out: T1/2(2)) was 42.7 ± 3.56 min and the Vd ([3]; iv, 1 mg/kg) was 2.95 ± 0.157 L/kg. The Emax [4] was 60%, the Emax (human mu opioid receptor [5]) was 95% and the AUC ([6]; po, 5 mg/kg) was 91.8 ng·h/mL. For the same compound, the AUC(0-inf) ([6]; po, 5 mg/kg) was 98.2 ng·h/mL, the MRT last ([6]; po, 5 mg/kg) was 108 min and the bioavailability ([6]; po, 5 mg/kg) was 10.1%. The Cmax ([6]; po, 5 mg/kg) was 48.7 ± 10.8 ng/mL, the half-life ([6]; po, 5 mg/kg, read-out: T1/2(2)) was 125 ± 63.7 min and the Tmax ([6]; po, 5 mg/kg) was 15 min.
Work on `COCCOCCOCCOCCOCCOCCOC1C=CC2C3Cc4ccc(OC)c5c4C2(CCN3C)C1O5` (stereo not drawn) [α-6-mPEG6-O-codeine] yielded a Ki [1] of over 160 µM, a Ki (human mu opioid receptor [2]) of 14.2 µM and an Emax [4] of 21%. The Emax (human mu opioid receptor [5]) was 80% and the EC50 (human mu opioid receptor [5]) was 97.4 µM.
For `COCCOCCOCCOCCOCCOCCOCCOC1CCC2(O)C3Cc4ccc(OC)c5c4C2(CCN3C)C1O5` (stereo not drawn) [α-6-mPEG7-O-hydroxycodone, α-6-mPEG7-O-oxycodone], the Ki (human mu opioid receptor [2]) was 1.61 µM, the AUC [3, 7] was 238 ng·h/mL and the AUC(0-inf) [3, 7] was 263 ng·h/mL. For the same compound, the MRT last [3, 7] was 54.3 min, the clearance [3, 7] was 63.3 ± 2.99 mL/min/kg and the Cmax [3, 7] was 489 ± 26.5 ng/mL. For the same compound, the half-life ([3]; hydroxycodone series, 1 mg/kg IV, Mean ± SD, read-out: T1/2(z)) was 87 ± 3.25 min, the Vd [3, 7] was 5.31 ± 0.139 L/kg and the Emax (human mu opioid receptor [5]) was 101%. The EC50 (human mu opioid receptor [5]) was 7.45 µM, the bioavailability ([6]; po, 5 mg/kg) was 28.1% and the AUC [6, 8] was 340 ng·h/mL. For the same compound, the MRT last [6, 8] was 178 min, the AUC(0-inf) ([6]; hydroxycodone series, 5.0 mg/kg oral, Mean ± SD, * n = 2) was 370 ng·h/mL and the half-life ([6]; hydroxycodone series, 5.0 mg/kg oral, Mean ± SD, * n = 2, read-out: T1/2(z)) was 115 ± 29.2 min. For the same compound, the Cmax [6, 8] was 114 ± 38 ng/mL, the Tmax ([6]; hydroxycodone series, 5.0 mg/kg oral, median value) was 120 min and the “Straub Tail, fold difference relative to parent compound” value (Male CD-1 mice; PO, 1/2 responding) was 30 fold. The “Loss Pinna, fold difference relative to parent compound” value (Male CD-1 mice; PO, 2/2 responding) was 30 fold, the “Muscle Rigidity, fold difference relative to parent compound” value (Male CD-1 mice; PO, 2/2 responding) was 30 fold and the “Straub Tail, fold difference relative to parent compound” value (Male CD-1 mice; PO, 2/2 responding) was 100 fold. The “Muscle Rigidity, fold difference relative to parent compound” value (Male CD-1 mice; SC, 1/2 responding) was over 300 fold, the “Straub Tail, fold difference relative to parent compound” value (Male CD-1 mice; SC, 1/2 responding) was 10 fold and the “Loss Pinna, fold difference relative to parent compound” value (Male CD-1 mice; SC, 2/2 responding) was 100 fold. The “Muscle Rigidity, fold difference relative to parent compound” value (Male CD-1 mice; SC, 2/2 responding) was 30 fold, the “Straub Tail, fold difference (reduction in CNS activity) relative to parent compound” value (Male CD-1 mice; SC, 2/2 responding) was 10 fold and the “injection lever responses (% ILR)” value (squirrel monkeys) was “only food lever responses”.
